Source: article PMC5118709, “Identification of Polo-like kinase 1 interaction inhibitors using a novel cell-based assay” (Scientific Reports, 2016)
Values joined by “and” are separate entries in the source; they are usually repeats but may differ in a detail not shown here. Identical values can stand only once.

Experiments:
GST-PBD367-603 of Plk1 = GST-PBD367-603 of Plk1 (Homo sapiens, UniProt P53350); test: fluorescence polarization assay PBD-phosphopeptide
Procedure: In this assay, an optimal phosphopeptide for PBD binding is coupled with a FITC fluorophore and its binding to purified recombinant PBD of Plk1 is monitored by the change in polarization of incident light.
The FP buffer was composed of 10 mM Tris pH 8.0, 50 mM NaCl, 1 mM EDTA, 20% glycerol and 0.1% NP-40. The peptide (final concentration 10 nM) was always added to the wells of non-binding, black, 384-well plates, 1 hour after the addition of the protein with the buffer (+/− treatment, 10% DMSO). […] EC65s were used to perform the competitive assays with the non-labeled peptides and with the inhibitors. FP Inhibition was calculated with the formula: 100 − [((mPsample − mPfree peptide)\(mPDMSO − mPfree peptide)) × 100]. […] (Map peptide), and corresponding non-labeled peptides are identical but without FITC in N-terminal. […] Inhibition curves were fitted with GraphPad (Prism software).

HEK293T cells = test: mitotic index assay (phospho-Histone H3) in HEK293T cells; conditions: 10 μM
Procedure: For the mitotic index assay, 4000 HeLa cells or 5000 HEK293T cells per well were seeded in a 96-well plate. The day after, cells were incubated for 7 hours with different compounds, and then fixed by adding formaldehyde (4% final concentration) directly to each well. Plates were incubated 20 minutes at 37 °C, and then wells were rinsed three times with TBS-Tween 0.1%. A 1 hour block with PHEM buffer (60 mM Pipes, 25 mM HEPES, 10 mM EGTA, 4 mM MgSO4, pH 6.9) containing 2% BSA and 0.1% triton was performed, before addition of the primary antibody to the wells. The anti-phospho-Histone H3 (Ser10) antibody (EMD Millipore) was diluted 1:300 in PHEM buffer containing 2% BSA and added to the wells for 2 hours at room temperature in the dark. […] Plates were incubated for 1h 30 at room temperature in the dark, and then wells were washed 3 times with TBS-Tween 0.1%. A solution of Mowiol containing DAPI was finally added to the wells. Plates were kept at 4 °C in the dark until imaging using the 20x objective on an Operetta system (Perkin Elmer inc.). The mitotic index, corresponding to the percentage of pHH3 positive cells relative to the total number of DAPI-stained cells detected was calculated by the Operetta using the Harmony 3.5 software. Experiments were done in triplicates.

Plk1 = molecular target: T1, Plk1 (Homo sapiens, UniProt P53350); test: localization of Plk1 in mitotic cells; assay type: cell-based; conditions: up to 100 μM, data not shown
T1 construct: localization of Plk1-GFP or endogenous Plk1 from mitotic centrosomes, kinetochores or the cytokinetic midbody; endogenous in cells

HeLa cells [1] = test: mitotic index assay (phospho-Histone H3) in HeLa cells; assay type: cell-based; conditions: 10-25 μM, 7 h
stability by LC-MS = assay type: physicochemical
Text: Based on these observations, we speculated that the sulfone undergoes a β-elimination of the benzoate subunit to generate a vinyl sulfone which is responsible for the biological activity of this class of compounds. Using LCMS, we evaluated the stability of Cpd 16 in the buffer used in the FP assay. […] The sulfone β-elimination is a base-catalysed process and the buffer used in the assay is basic enough to allow the reaction to occur. Under neutral or acidic conditions, the compound was very stable and no fragmentation was observed.
Cpd 161, which is 2-((6-methyl-4-(trifluoromethyl)pyridin-2-yl)sulfonyl)ethyl 3-chlorobenzoate (400 μM final concentration), was added to 500 μl of FP buffer (previously described).

Plk1-Map interaction [2] = molecular target: T2, Plk1-Map interaction (Homo sapiens, UniProt P53350); test: BRET Plk1-Map, transient Luc-Map/Plk1-GFP in HEK293T; assay type: cell-based; set-up: cDNAs for the human full length Plk1; expressed in transfected cells; conditions: confirmation screen
Procedure: (§1) For the confirmation screen, the same procedure as for the primary screen was followed, except that HEK293T cells were also seeded at 6.25 millions of cells per simple CellStack on day 1 for transient transfections. These cells were transfected on day 3 with Luc-Map (5 μg) and Plk1-GFP (25 μg) pIRESHyg3 plasmids using polyethylenimine (PEI). To identify false-positives compounds, Luc-CRAF (4 μg) and GFP-BRAF (20 μg) plasmids were also transfected with PEI following the published procedure.

Plk1-Map interaction [3] = molecular target: T2, Plk1-Map interaction; test: LUMIER co-immunoprecipitation assay Plk1-Map
CRAF-BRAF = molecular target: T3, CRAF-BRAF (Homo sapiens, UniProt P04049+P15056); test: control BRET CRAF-BRAF (transient); assay type: cell-based
T3 construct: expressed in transfected cells; host or cells: HEK293T, transient transfection with PEI
Procedure: We used our cell-based assay to screen a library of 112 983 compounds available in-house at IRIC’s High-Throughput Screening (HTS) platform (see Materials & Methods). Compounds were tested on cells in 384-well plates at concentrations between 10 μM and 25 μM, depending on their concentration in the original stocks solutions. BRET readings were taken 2 hours after treatment. Results obtained show a tight, close to normal distribution centered around zero inhibition relative to DMSO-treated controls (Fig. 1D). Compounds inducing at least 30% BRET inhibition were selected. From these, auto-fluorescent compounds and those that induced more than 90% reduction in RLucII luminescence were removed, leaving 800 primary hits, that we then re-tested using the same assay. In parallel, we tested these compounds in a control BRET assay for an unrelated pair of interacting proteins (BRAF-CRAF[46]) to exclude false-positive compounds that could reduce the BRET signal by interfering with light or by modifying the activity of GFP or Luc.
as §1

HeLa cells [4] = test: mitotic defect phenotypes by immunofluorescence; assay type: cell-based; conditions: 10 μM, 7 h
Procedure, shortened: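 HeLa cells on poly-L-lysine coverslips treated 7 h, fixed in 4% formaldehyde/PHEM at 37 °C. Immunostained for pericentrin and α-tubulin with DAPI for DNA; spindle organisation scored by fluorescence microscopy against DMSO controls.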

T2 sequence (P53350 whole entry): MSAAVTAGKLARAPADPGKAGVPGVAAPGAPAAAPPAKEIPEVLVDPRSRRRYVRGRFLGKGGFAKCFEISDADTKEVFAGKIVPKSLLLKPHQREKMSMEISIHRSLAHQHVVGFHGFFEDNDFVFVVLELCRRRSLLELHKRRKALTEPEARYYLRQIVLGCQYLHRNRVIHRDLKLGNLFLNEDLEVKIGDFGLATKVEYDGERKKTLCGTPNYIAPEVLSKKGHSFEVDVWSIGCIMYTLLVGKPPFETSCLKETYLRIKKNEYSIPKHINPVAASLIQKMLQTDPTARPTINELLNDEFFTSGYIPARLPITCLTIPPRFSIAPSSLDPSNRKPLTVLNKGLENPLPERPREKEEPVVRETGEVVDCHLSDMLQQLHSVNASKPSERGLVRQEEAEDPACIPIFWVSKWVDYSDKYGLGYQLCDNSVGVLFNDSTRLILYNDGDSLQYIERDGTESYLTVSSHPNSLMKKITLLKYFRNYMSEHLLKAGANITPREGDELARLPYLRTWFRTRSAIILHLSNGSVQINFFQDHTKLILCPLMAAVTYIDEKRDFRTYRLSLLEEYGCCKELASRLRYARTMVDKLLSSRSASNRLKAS
Chain of GST-PBD367-603 of Plk1 (P53350 367-603): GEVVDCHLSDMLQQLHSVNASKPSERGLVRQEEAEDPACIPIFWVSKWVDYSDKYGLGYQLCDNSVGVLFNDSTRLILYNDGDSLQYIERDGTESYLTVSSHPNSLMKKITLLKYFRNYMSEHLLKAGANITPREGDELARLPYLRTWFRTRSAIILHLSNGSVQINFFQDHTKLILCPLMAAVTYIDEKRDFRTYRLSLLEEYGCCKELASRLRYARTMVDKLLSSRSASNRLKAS
T3 sequence (P04049 whole entry): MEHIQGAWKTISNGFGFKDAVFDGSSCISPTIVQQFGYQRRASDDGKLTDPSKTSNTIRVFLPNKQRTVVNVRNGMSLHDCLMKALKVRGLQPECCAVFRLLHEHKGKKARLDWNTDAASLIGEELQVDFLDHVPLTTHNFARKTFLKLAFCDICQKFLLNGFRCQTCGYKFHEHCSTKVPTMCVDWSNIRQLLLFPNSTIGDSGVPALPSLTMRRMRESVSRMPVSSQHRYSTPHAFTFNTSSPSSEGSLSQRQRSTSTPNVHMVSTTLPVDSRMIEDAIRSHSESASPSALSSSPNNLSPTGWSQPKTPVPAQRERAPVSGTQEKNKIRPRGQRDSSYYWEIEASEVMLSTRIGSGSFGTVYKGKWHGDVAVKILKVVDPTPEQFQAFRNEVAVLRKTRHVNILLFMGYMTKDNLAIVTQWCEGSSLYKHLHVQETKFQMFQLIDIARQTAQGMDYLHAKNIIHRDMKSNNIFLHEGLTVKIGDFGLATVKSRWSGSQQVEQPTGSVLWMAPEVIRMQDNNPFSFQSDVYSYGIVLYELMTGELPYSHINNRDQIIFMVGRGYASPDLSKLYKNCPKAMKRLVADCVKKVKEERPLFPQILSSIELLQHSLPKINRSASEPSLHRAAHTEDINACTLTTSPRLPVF
T3 sequence (P15056 whole entry): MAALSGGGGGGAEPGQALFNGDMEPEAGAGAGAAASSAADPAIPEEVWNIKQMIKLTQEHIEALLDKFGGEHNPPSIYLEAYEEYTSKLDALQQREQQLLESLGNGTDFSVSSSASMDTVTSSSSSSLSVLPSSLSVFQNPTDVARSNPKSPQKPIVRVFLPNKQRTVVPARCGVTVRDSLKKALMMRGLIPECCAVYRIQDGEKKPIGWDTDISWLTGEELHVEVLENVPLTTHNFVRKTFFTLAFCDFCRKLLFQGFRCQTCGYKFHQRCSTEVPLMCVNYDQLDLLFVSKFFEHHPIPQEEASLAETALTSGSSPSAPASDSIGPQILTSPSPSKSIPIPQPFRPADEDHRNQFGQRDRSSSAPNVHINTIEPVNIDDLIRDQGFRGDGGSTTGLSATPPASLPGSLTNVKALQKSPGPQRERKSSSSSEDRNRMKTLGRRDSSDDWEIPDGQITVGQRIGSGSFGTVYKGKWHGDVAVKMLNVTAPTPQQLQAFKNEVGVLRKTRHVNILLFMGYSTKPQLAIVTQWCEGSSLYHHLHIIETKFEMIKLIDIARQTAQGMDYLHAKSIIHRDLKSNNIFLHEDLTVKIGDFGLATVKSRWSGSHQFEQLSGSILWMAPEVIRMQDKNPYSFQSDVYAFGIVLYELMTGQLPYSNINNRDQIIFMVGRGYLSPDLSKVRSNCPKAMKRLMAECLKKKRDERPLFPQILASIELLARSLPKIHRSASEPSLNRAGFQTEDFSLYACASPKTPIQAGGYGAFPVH
T1 sequence (P53350 whole entry): as the sequence (P53350 whole entry) above

In the case of `Cc1cc(C(F)(F)F)cc(S(=O)(=O)CCOC(=O)c2cccc(Cl)c2)n1` [Cpd 16, 2-((6-methyl-4-(trifluoromethyl)pyridin-2-yl)sulfonyl)ethyl 3-chlorobenzoate], the IC50 (GST-PBD367-603 of Plk1; FP - IC50 (μM), Table S3) is reported as 18.4 ± 10.2 µM, the IC50 (GST-PBD367-603 of Plk1; IC50 in FP, GST-PBD367-603 38 nM, 1 h pre-incubation, FITC-phosphopeptide 10 nM, Fig. 4C) is reported as ~16 µM and 16 µM and the “effect on mitotic index, purchased compounds” value (HEK293T cells) is reported as “effective”. For the same compound, the “effect on localization of Plk1 in mitotic cells” value (Plk1) was “did not result in a significant decrease”, the “Mitotic index (%)” value (HeLa cells [1]) was 15.73% and the “stability in the FP buffer” value (stability by LC-MS; approximate pH 8.0, a few minutes (approximately 10 minutes)) was “fragmentation occurred”. The stability (stability by LC-MS; neutral or acidic conditions) was “very stable”, the “Confirmation Plk1-Map (transient) % Inihibition” value (Plk1-Map interaction [2]) was 30.06% and the “Confirmation Plk1-Map (transient) % Quench RLuc” value (Plk1-Map interaction [2]) was 74.57%. The “Average-Beads (mean luminescence)” value (Plk1-Map interaction [3]; 10-25 μM, 2 h) was 25,276, the “Co-IP Values relative to top in plate column = 1” value (Plk1-Map interaction [3]; 10-25 μM, 2 h) was 0.022 and the “effect on the Plk1-Map interaction in co-IP” value (Plk1-Map interaction [3]; 10-25 μM, 2 h) was “disrupts the interaction with similar or better efficiency than TQ or PPG”. For the same compound, the “Relative Luminescence Unit” value (Plk1-Map interaction [3]; mean divided by maximum mean of the compounds) was 0.022, the “Luminescence on beads, duplicate wells” value (Plk1-Map interaction [3]; raw data, 10-25 μM, 2 h) was 21,904 and 28,648 and the “Primary screen CRAF-BRAF (transient) % Inihibition” value (CRAF-BRAF; 10-25 μM) was 52.83%. For the same compound, the “Primary screen CRAF-BRAF (transient) % Quench RLuc” value (CRAF-BRAF; 10-25 μM) was 88.39%, the “Confirmation CRAF-BRAF (transient) % Inihibition” value (CRAF-BRAF; confirmation screen) was 0.37% and the “Confirmation CRAF-BRAF (transient) % Quench RLuc” value (CRAF-BRAF; confirmation screen) was 80.17%. For the same compound, the “2 > pericentrin foci (percentage of cells)” value (HeLa cells [4]) was 23 ± 11% and the “Disorganized spindles (percentage of cells)” value (HeLa cells [4]) was 58 ± 13%.
